Test results reported in US20040249122A1, “Cationic, amphipathic beta-sheet peptides and uses thereof” (priority 2003, published 2004).
In brackets after ≈: the same amount, converted by molar mass. Entries after “also recorded” stand apart in the source; their conditions may differ. Where a SMILES comes first, the peptide text is derived from it. The star is where a group is joined. Octanoyl = CCCCCCCC(=O)*

Legend:
[1] = tested on: Staphylococcus aureus (ATCC 29213); assay type: cell-based; conditions: ATCC 29213
Method: (§1) Antimicrobial and Hemolytic Assays. Antimicrobial susceptibility testing against Staphylococcus aureus (ATCC 29213), Escherichia coli (ATCC 25922), and Pseudomonas aeruginosa (ATCC 27853) was performed using a modification of the National Committee for Clinical Laboratory Standards microdilution broth assay (22). Mueller-Hinton broth (BBL) was used for diluting the peptide stock solution and for diluting the bacterial inoculum. The inoculum was prepared from mid-logarithmic phase cultures. […] The final concentration of peptide solution ranged-from 0.25 to 256 μg/mL in two-fold dilutions. The final concentration of bacteria in the wells was 5×10^5 CFU/mL. Peptides were tested in duplicate. In addition to the test peptide, three standard peptides and a non-treated growth control were included to validate the assay. The microtiter plates were incubated overnight at 37° C. and the absorbance was measured at 600 nm. […] After incubation at 37° C. for 30 min, the suspension was centrifuged at 10,000×g for 10 min and the absorbance at 400 nm was measured.

[2] = tested on: Pseudomonas aeruginosa (ATCC 27853); assay type: cell-based; conditions: ATCC 27853
Method: as §1

[3] = tested on: Escherichia coli (ATCC 25922); assay type: cell-based; conditions: ATCC 25922
Method: as §1

[4] = tested on: E. coli, S. aureus, and P. aeruginosa; assay type: cell-based
Method: Antimicrobial and Hemolytic Assays. Antimicrobial susceptibility testing against Staphylococcus aureus (ATCC 29213), Escherichia coli (ATCC 25922), and Pseudomonas aeruginosa (ATCC 27853) was performed using a modification of the National Committee for Clinical Laboratory Standards microdilution broth assay (22). Mueller-Hinton broth (BBL) was used for diluting the peptide stock solution and for diluting the bacterial inoculum. The inoculum was prepared from mid-logarithmic phase cultures. Microtiter plate wells received aliquots-of 100 μL each of the inoculum and peptide dilution. The final concentration of peptide solution ranged-from 0.25 to 256 μg/mL in two-fold dilutions. The final concentration of bacteria in the wells was 5×10^5 CFU/mL. Peptides were tested in duplicate. In addition to the test peptide, three standard peptides and a non-treated growth control were included to validate the assay. The microtiter plates were incubated overnight at 37° C. and the absorbance was measured at 600 nm. […] Hemolysis at peptide concentrations of 500 μg/mL was determined using a 5% suspension of freshly drawn human erythrocytes, which had been washed twice in phosphate buffered saline. After incubation at 37° C. for 30 min, the suspension was centrifuged at 10,000×g for 10 min and the absorbance at 400 nm was measured. Complete hemolysis was determined by adding 0.2% Triton X-100 in place of the peptide.

[5] = Peptide-induced leakage from calcein-loaded LUV
Method: Peptide-Induced Leakage from Calcein-Loaded LUV. The ability of the peptides to release calcein (MW 623) from LUV of varying lipid composition was compared. LUV were prepared as above, except that-the buffer consisted of 50 mM HEPES, 100 mM NaCl, 0.3 mM EDTA, 80 mM calcein, pH 7.4. Calcein-loaded vesicles were separated from free calcein by size-exclusion chromatography using a Sephadex G-50 column and calcein-free buffer. Calcein leakage was monitored using a Perkin-Elmer LS-500 luminescence spectrometer by measuring the time-dependent increase in fluorescence of calcein (excitation=490 nm, emission=520 nm). LUV containing 8 nmoles of lipid were added to 1.5 mL of buffer in a stirred cuvet at 25° C. An aliquot of peptide was added to achieve the desired lipid-to-peptide ratio (256 to 8). Complete leakage was determined by the addition of 20 μL of 10% Triton X-100. Each value represents at least nine different measurements using at least three different LUV preparations.

Structure (SMILES)	MIC Staph. aureus [1]	MIC Pseud. aerug [2]	MIC E. coli [3]	antimicrobial activity (in words) [4]	calcein leakage from LUV (in words) ([5]; LUVs from E. coli lipids)	calcein leakage from LUV (in words) ([5]; POPC (PC) LUV)	MIC values [4]
CCCCCCCC(=O)N[C@@H](CCCCN)C(=O)N[C@@H](Cc1c[nH]c2ccccc12)C(=O)NCC(=O)N[C@@H](C)C(=O)N[C@@H](CCCCN)C(=O)N[C@H](C(N)=O)[C@@H](C)CC [Oct-KIGAKI-6, Oct- K W G A K I-NH2] (Octanoyl-KWGAKI-NH2)	>256 µg/mL	>256 µg/mL	>256 µg/mL	no activity			
CC(C)C[C@H](NC(=O)CNC(=O)[C@H](C)NC(=O)[C@H](CC(C)C)NC(=O)[C@H](CCCCN)NC(=O)[C@H](C)NC(=O)[C@H](CCCCN)NC(=O)[C@H](CC(C)C)NC(=O)CNC(=O)[C@H](C)NC(=O)[C@H](Cc1c[nH]c2ccccc12)NC(=O)[C@H](CCCCN)NC(=O)[C@H](C)NC(=O)[C@H](CCCCN)NC(=O)[C@H](CC(C)C)NC(=O)CNC(=O)[C@H](C)NC(=O)[C@H](CC(C)C)NC(=O)[C@@H](N)CCCCN)C(=O)N[C@@H](CCCCN)C(=O)N[C@@H](C)C(N)=O [1,6-Hept, KLAGLKAKWAGLKAKLAGLKA-NH2] (H-KLAGLKAKWAGLKAKLAGLKA-NH2; N-terminus assumed)	>256 µg/mL	>256 µg/mL	>256 µg/mL	devoid of antimicrobial activity			
CC(C)C[C@H](NC(=O)[C@H](CCCCN)NC(=O)CNC(=O)[C@H](C)NC(=O)[C@H](CC(C)C)NC(=O)[C@H](CCCCN)NC(=O)[C@H](C)NC(=O)[C@H](CC(C)C)NC(=O)[C@H](CCCCN)NC(=O)CNC(=O)[C@H](C)NC(=O)[C@H](Cc1c[nH]c2ccccc12)NC(=O)[C@H](CCCCN)NC(=O)[C@H](C)NC(=O)[C@H](CC(C)C)NC(=O)[C@H](CCCCN)NC(=O)CNC(=O)[C@H](C)NC(=O)[C@H](CC(C)C)NC(=O)[C@@H](N)CCCCN)C(=O)N[C@@H](C)C(N)=O [1,5-Hept, KLAGKLAKWAGKLAKLAGKLA-NH2] (H-KLAGKLAKWAGKLAKLAGKLA-NH2; N-terminus assumed)	4 µg/mL (≈ 1.87 µM)	16 µg/mL (≈ 7.49 µM)	8 µg/mL (≈ 3.75 µM)	relatively low MIC values			
CC(C)C[C@H](NC(=O)CNC(=O)[C@H](C)NC(=O)[C@H](CC(C)C)NC(=O)[C@H](CCCCN)NC(=O)[C@H](CCCCN)NC(=O)[C@H](C)NC(=O)[C@H](CC(C)C)NC(=O)CNC(=O)[C@H](C)NC(=O)[C@H](Cc1c[nH]c2ccccc12)NC(=O)[C@H](CCCCN)NC(=O)[C@H](CCCCN)NC(=O)[C@H](C)NC(=O)[C@H](CC(C)C)NC(=O)CNC(=O)[C@H](C)NC(=O)[C@H](CC(C)C)NC(=O)[C@H](CCCCN)NC(=O)[C@@H](N)CCCCN)C(=O)N[C@@H](C)C(N)=O [1,2-Hept, KKLAGLAKKWAGLAKKLAGLA-NH2] (H-KKLAGLAKKWAGLAKKLAGLA-NH2; N-terminus assumed)	16 µg/mL (≈ 7.49 µM)	16 µg/mL (≈ 7.49 µM)	8 µg/mL (≈ 3.75 µM)	relatively low MIC values			
CC(C)C[C@H](NC(=O)CNC(=O)[C@H](C)NC(=O)[C@H](CCCCN)NC(=O)[C@H](CC(C)C)NC(=O)[C@H](CCCCN)NC(=O)[C@H](C)NC(=O)[C@H](CC(C)C)NC(=O)CNC(=O)[C@H](C)NC(=O)[C@H](CCCCN)NC(=O)[C@H](Cc1c[nH]c2ccccc12)NC(=O)[C@H](CCCCN)NC(=O)[C@H](C)NC(=O)[C@H](CC(C)C)NC(=O)CNC(=O)[C@H](C)NC(=O)[C@H](CCCCN)NC(=O)[C@H](CC(C)C)NC(=O)[C@@H](N)CCCCN)C(=O)N[C@@H](C)C(N)=O [1,3-Hept, KLKAGLAKWKAGLAKLKAGLA-NH2] (H-KLKAGLAKWKAGLAKLKAGLA-NH2; N-terminus assumed)	256 µg/mL (≈ 120 µM)	>256 µg/mL	32 µg/mL (≈ 15 µM)	slightly active			
CC(C)C[C@H](NC(=O)[C@H](CCCCN)NC(=O)[C@H](CC(C)C)NC(=O)[C@H](CCCCN)NC(=O)[C@H](CC(C)C)NC(=O)[C@H](CCCCN)NC(=O)[C@H](Cc1c[nH]c2ccccc12)NC(=O)[C@H](CCCCN)NC(=O)[C@H](CC(C)C)NC(=O)[C@H](CCCCN)NC(=O)[C@H](CC(C)C)NC(=O)[C@H](CCCCN)NC(=O)[C@H](CC(C)C)NC(=O)[C@@H](N)CCCCN)C(N)=O [KL-14, K L K L K L K W K L K L K L-NH2] (H-KLKLKLKWKLKLKL-NH2; N-terminus assumed)	16 µg/mL (≈ 8.99 µM)	16 µg/mL (≈ 8.99 µM)	32 µg/mL (≈ 18 µM)		highly effective	quite lytic	4 to 16 µg/mL
CC(C)C[C@H](NC(=O)[C@H](CCCCN)NC(=O)[C@H](CC(C)C)NC(=O)[C@H](CCCCN)NC(=O)[C@H](CC(C)C)NC(=O)[C@H](CCCCN)NC(=O)[C@H](CC(C)C)NC(=O)[C@H](CCCCN)NC(=O)[C@H](CC(C)C)NC(=O)[C@H](CCCCN)NC(=O)[C@H](Cc1c[nH]c2ccccc12)NC(=O)[C@H](CCCCN)NC(=O)[C@H](CC(C)C)NC(=O)[C@H](CCCCN)NC(=O)[C@H](CC(C)C)NC(=O)[C@H](CCCCN)NC(=O)[C@H](CC(C)C)NC(=O)[C@@H](N)CCCCN)C(N)=O [KL-18, K L K L K L K W K L K L K L K L K L-NH2] (H-KLKLKLKWKLKLKLKLKL-NH2; N-terminus assumed)	16 µg/mL (≈ 7.07 µM)	32 µg/mL (≈ 14.1 µM)	64 µg/mL (≈ 28.3 µM)		highly effective	most potent; also recorded: quite lytic	4 to 16 µg/mL
CC(C)C[C@H](NC(=O)CNC(=O)[C@H](C)NC(=O)[C@H](CC(C)C)NC(=O)[C@H](CCCCN)NC(=O)[C@H](CCCCN)NC(=O)[C@H](C)NC(=O)[C@H](CC(C)C)NC(=O)CNC(=O)[C@H](C)NC(=O)[C@H](Cc1c[nH]c2ccccc12)NC(=O)[C@H](CCCCN)NC(=O)[C@H](CCCCN)NC(=O)[C@H](C)NC(=O)[C@H](CC(C)C)NC(=O)CNC(=O)[C@H](C)NC(=O)[C@H](CC(C)C)NC(=O)[C@@H](N)CCCCN)C(=O)N[C@@H](C)C(=O)N[C@@H](CCCCN)C(N)=O [1,7-Hept, KLAGLAKKWAGLAKKLAGLAK-NH2] (H-KLAGLAKKWAGLAKKLAGLAK-NH2; N-terminus assumed)	16 µg/mL (≈ 7.49 µM)	16 µg/mL (≈ 7.49 µM)	8 µg/mL (≈ 3.75 µM)	relatively low MIC values			
